Experimental data as given in ChEMBL document CHEMBL4765389, “Antimicrobial and anti-inflammatory activities of short dodecapeptides derived from duck cathelicidin: Plausible mechanism of bactericidal action and endotoxin neutralization” (Eur J Med Chem, 2020).
Active and inactive are the calls of the source. The rule behind the calls is not given here.

Legend:
[1] = test system: Escherichia coli; assay: Bacteriostatic activity against Escherichia coli KCTC 1682 assessed as reduction in colony forming unit at 0.5 times MIC measured for 24 hrs by time kill assay; type: functional
[2] = test system: Escherichia coli; assay: Antibacterial activity against Escherichia coli KCTC 1682 assessed as reduction in bacterial growth incubated for 24 hrs by CLSI based broth dilution method; type: functional; settings: read-out: MIC100
[3] = test system: Salmonella typhimurium; assay: Antibacterial activity against Salmonella typhimurium KCTC 1926 assessed as reduction in bacterial growth incubated for 24 hrs by CLSI based broth dilution method; type: functional, Salmonella enterica subsp. enterica serovar Typhimurium; settings: Salmonella enterica, read-out: MIC100
[4] = test system: RAW264.7; assay: Antiinflammatory activity against mouse RAW264.7 cells assessed as reduction in LPS-induced nitrite level at 5 uM incubated for 24 hrs by Griess reagent based assay relative to control; type: functional
[5] = test system: Staphylococcus epidermidis; assay: Antibacterial activity against Staphylococcus epidermidis KCTC 1917 assessed as reduction in bacterial growth incubated for 24 hrs by CLSI based broth dilution method; type: functional; settings: read-out: MIC100
[6] = Antibacterial activity against multidrug-resistant Pseudomonas aeruginosa CCARM 2109 assessed as reduction in bacterial growth incubated for 24 hrs by CLSI based broth dilution method; type: functional; settings: read-out: MIC100
[7] = Retention time of the compound by RP-HPLC method; type: physicochemical
[8] = test system: Candida albicans; assay: Antifungal activity against Candida albicans KCTC 7965 assessed as reduction in fungal growth incubated for 24 hrs by CLSI based broth dilution method; type: functional; settings: read-out: MIC100
[9] = test system: Candida albicans; assay: Antifungal activity against Candida albicans KCTC 7121 assessed as reduction in fungal growth incubated for 24 hrs by CLSI based broth dilution method; type: functional; settings: read-out: MIC100
[10] = test system: Staphylococcus aureus; assay: Antibacterial activity against methicillin-resistant Staphylococcus aureus CCARM 3095 assessed as reduction in bacterial growth incubated for 24 hrs by CLSI based broth dilution method; type: functional; settings: read-out: MIC100
[11] = test system: Bacteria; assay: Antibacterial activity against Gram negative bacteria assessed as reduction in bacterial growth incubated for 24 hrs by CLSI based broth dilution method; type: functional; settings: read-out: MIC100
[12] = test system: Pseudomonas aeruginosa; assay: Antibacterial activity against Pseudomonas aeruginosa KCTC 1637 assessed as reduction in bacterial growth incubated for 24 hrs by CLSI based broth dilution method; type: functional; settings: read-out: MIC100
[13] = test system: Bacillus subtilis; assay: Antibacterial activity against Bacillus subtilis KCTC 3068 assessed as reduction in bacterial growth incubated for 24 hrs by CLSI based broth dilution method; type: functional; settings: read-out: MIC100
[14] = test system: RAW264.7; assay: Antiinflammatory activity against mouse RAW264.7 cells assessed as reduction in LPS-induced TNFalpha level at 10 uM incubated for 24 hrs by […] relative to control; type: functional
[15] = test system: Enterococcus faecium; assay: Antibacterial activity against vancomycin-resistant Enterococcus faecium ATCC 51559 assessed as reduction in bacterial growth incubated for 24 hrs by CLSI based broth dilution method; type: functional; settings: read-out: MIC100
[16] = test system: Staphylococcus aureus; assay: Antibacterial activity against methicillin-resistant Staphylococcus aureus CCARM 3090 assessed as reduction in bacterial growth incubated for 24 hrs by CLSI based broth dilution method; type: functional; settings: read-out: MIC100
[17] = test system: Saccharomyces cerevisiae; assay: Antifungal activity against yeast assessed as reduction in fungal growth incubated for 24 hrs by CLSI based broth dilution method; type: functional; settings: read-out: MIC100
[18] = Therapeutic index, ratio of HC10 for sheep RBC to geometric mean MIC for yeast; type: toxicity; settings: sheep red blood cells, read-out: TI
[19] = test system: Erythrocyte; assay: Hemolytic activity in sheep RBC assessed as reduction in hemoglobin at 256 uM incubated for 1 hr; type: ADME, cell-based, Ovis aries
[20] = Therapeutic index, ratio of HC10 for sheep RBC to geometric mean MIC for gram positive bacteria; type: toxicity; settings: sheep red blood cells, read-out: TI
[21] = Cytotoxicity against mouse RAW264.7 cells assessed as reduction in cell viability at 20 uM incubated for 24 hrs by MTT assay; type: cell-based; settings: read-out: INH
[22] = Cytotoxicity against mouse NIH/3T3 cells assessed as reduction in cell viability at 20 uM incubated for 24 hrs by MTT assay; type: cell-based, NIH3T3; settings: NIH/3T3 cells, read-out: INH
[23] = test system: Staphylococcus aureus; assay: Antibacterial activity against Staphylococcus aureus KCTC 1621 assessed as reduction in bacterial growth incubated for 24 hrs by CLSI based broth dilution method; type: functional; settings: read-out: MIC100
[24] = test system: Staphylococcus aureus; assay: Antibacterial activity against methicillin-resistant Staphylococcus aureus CCARM 3089 assessed as reduction in bacterial growth incubated for 24 hrs by CLSI based broth dilution method; type: functional; settings: read-out: MIC100
[25] = test system: Bacteria; assay: Antibacterial activity against Gram positive bacteria assessed as reduction in bacterial growth incubated for 24 hrs by CLSI based broth dilution method; type: functional; settings: read-out: MIC100
[26] = test system: Erythrocyte; assay: Hemolytic activity in sheep RBC assessed as reduction in hemoglobin incubated for 1 hr; type: ADME, cell-based, Ovis aries
[27] = Therapeutic index, ratio of HC10 for sheep RBC to geometric mean MIC for gram negative bacteria; type: toxicity; settings: sheep red blood cells, read-out: TI
[28] = Antibacterial activity against multidrug-resistant Pseudomonas aeruginosa CCARM 2095 assessed as reduction in bacterial growth incubated for 24 hrs by CLSI based broth dilution method; type: functional; settings: read-out: MIC100

Compound	MIC [2] [µM]	MIC [3] [µM]	MIC [5] [µM]	MIC [6] [µM]	Retention_time [7] [min]	MIC [8] [µM]	MIC [9] [µM]	MIC [10] [µM]	MIC [11] [µM]	MIC [12] [µM]	MIC [13] [µM]	MIC [15] [µM]	MIC [16] [µM]	MIC [17] [µM]	selectivity ratio [18]	Activity [19]	selectivity ratio [20]	cytotoxicity at 24 h, 20 µM [21] [%]	cytotoxicity at 24 h, 20 µM [22] [%]	MIC [23] [µM]	other results
CCn1cc(C(=O)O)c(=O)c2ccc(C)nc21	–	–	–	–	–	–	–	–	–	–	–	–	–	–	–	–	–	–	–	–	Activity [1]: inactive
H-LAKKIYRAWKRR-NH2	8	4	8	32	14.1	8	8	16	16	4	8	16	16	8	64	Non-Toxic	36.1	< 10	< 10	4	inhibition at 5 µM [4]: < 10%; inhibition at 10 µM [14]: < 10%; MIC [24]: 32 µM; MIC [25]: 14.2 µM; HC10 [26]: > 256 µM; selectivity ratio [27]: 32; MIC [28]: 32 µM
H-LAKKIYRAWKRW-NH2	16	2	8	32	17.1	8	8	16	14	4	4	16	16	8	64	Non-Toxic	37.4	< 10	< 10	4	inhibition at 5 µM [4]: < 10%; inhibition at 10 µM [14]: < 10%; MIC [24]: 32 µM; MIC [25]: 13.7 µM; HC10 [26]: > 256 µM; selectivity ratio [27]: 36.6; MIC [28]: 16 µM
H-LAKKIYRKWKRW-NH2	8	2	4	8	15.1	8	8	16	7.6	4	4	8	16	8	64	Non-Toxic	52.8	< 10	< 10	4	inhibition at 5 µM [4]: < 10%; inhibition at 10 µM [14]: < 10%; MIC [24]: 16 µM; MIC [25]: 9.7 µM; HC10 [26]: > 256 µM; selectivity ratio [27]: 67.4; MIC [28]: 16 µM
H-QLVPLAIKIYRAWKRR-NH2	32	16	16	32	24.1	8	16	32	25.6	16	16	32	16	12	15	Non-Toxic	8.3	35	50	8	MIC [24]: 32 µM; MIC [25]: 21.7 µM; HC10 [26]: 180 µM; selectivity ratio [27]: 7; MIC [28]: 32 µM
H-VPLAIKIYRAWKRR-NH2	16	8	16	32	21.7	16	16	32	19.2	8	4	16	32	16	32	Non-Toxic	25.6	< 10	< 10	8	MIC [24]: 32 µM; MIC [25]: 20 µM; HC10 [26]: > 256 µM; selectivity ratio [27]: 26.7; MIC [28]: 32 µM
